Measured values from patent publication US12331040B2 (Karyopharm Therapeutics Inc., priority 2013, dated 2025).
pIC50: −log10 of the molar value. Where two headings read alike, the source gives them in different places.

Key:
Assay type in all cases: cell-based
PC3 cells = test: MTT cell proliferation assay; settings: Homo sapiens, PC-3
Protocol: (§1) The MTT cell proliferation assay was used to study the cytotoxic properties of the compounds. The assay was performed according to the method described by Roche Molecular Biochemicals, with minor modifications. The assay is based on the cleavage of the tetrazolium salt, MTT, in the presence of an electron-coupling reagent. The water-insoluble formazan salt produced must be solubilized in an additional step. Cells grown in a 96-well tissue culture plate were incubated with the MTT solution for approximately 4 hours. After this incubation period, a water-insoluble formazan dye formed. After solubilization, the formazan dye was quantitated using a scanning multi-well spectrophotometer (ELISA reader). […] The cells were seeded at 5,000-10,000 cells in each well of 96-well plate in 100 μL of fresh culture medium and were allowed to attach overnight. The stock solutions of the compounds were diluted in 100 μL cell culture medium to obtain eight concentrations of each test compound, ranging from 1 nM to 30 μM. […] All optical densities were measured at 490 nm using a Vmax Kinetic Microplate Reader (Molecular Devices). In most cases, the assay was performed in duplicate and the results were presented as a mean percent inhibition to the negative control±SE. The following formula was used to calculate the percent of inhibition: Inhibition (%)=(1−(ODo/OD))×100.
(§2) The M24 cell line is derived from human melanoma cells. The U2OS cell line is a human osteosarcoma cell line expressing wild type p53 and Rb, but lacking p16. The MM1S cell line is a multiple myeloma cell line; the parent cell line, MM.1, was established from peripheral blood of a multiple myeloma patient who had become resistant to steroid-based therapy. The RPMI8226 cell line is derived from human B lymphocyte cells. NHDF cells are normal human dermal fibroblast cells. The MRC-5 cell line is derived from normal lung tissue of a fetus. The PC3 cell line is a human prostate cancer cell line. The DU-145 cell line is a human prostate cancer cell line. The MDA-MB-231 cell line is a human breast adenocarcinoma cell line. The MDA-MB-468 cell line is a human breast carcinoma cell line. HL-60 cells are human promyelocytic leukemia cells. Hep G2 cells are human hepatocellular carcinoma cells. HEP 3B cells are human hepatocellular carcinoma cells. The DLD-1 cell line is a colorectal adenocarcinoma cell line. The HCT-15 cell line is a human colon carcinoma cell line. The Colo-205 cell line is derived from a human adenocarcinoma of the colon. The LoVo cell line is a human colon adenocarcinoma cell line.

Colo-205 cells = test: MTT cell proliferation assay; settings: Homo sapiens
Protocol: as §1, §2

MDA-MB-468 cells = test: MTT cell proliferation assay; settings: Homo sapiens
Protocol: as §1, §2

DLD-1 cells = test: MTT cell proliferation assay; settings: Homo sapiens
Protocol: as §1, §2

DU-145 cells = test: MTT cell proliferation assay; settings: Homo sapiens
Protocol: as §1, §2

MDA-MB-231 cells = test: MTT cell proliferation assay; settings: Homo sapiens
Protocol: as §1, §2

HCT-15 cells = test: MTT cell proliferation assay; settings: Homo sapiens
Protocol: as §1, §2

[1] = MTT cell proliferation assay; settings: human, MRC-5 cells (normal fetal lung cell line); MRC-5 cells; 72-hour MTT
Protocol: as §1, §2

U2OS cells = test: MTT cell proliferation assay; settings: Homo sapiens
Protocol: as §1, §2

LoVo cells = test: MTT cell proliferation assay; settings: Homo sapiens
Protocol: as §1, §2

NHDF cells = test: MTT cell proliferation assay; settings: Homo sapiens
Protocol: as §1, §2

MM1S cells = test: MTT cell proliferation assay; settings: Homo sapiens, MM1.S
Protocol: as §1, §2

3T3 cells = test: MTT cell proliferation assay; settings: Mus musculus
Procedure, shortened: (§3)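 5,000-10,000 cells/well, overnight attach; 8 conc., 1 nM–30 μM; MTT ~4 h; formazan solubilized, OD 490 nm; % inhibition = (1−(ODo/OD))×100 vs neg. control; mostly duplicate, mean±SE.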

Z138 cells = test: MTT cell proliferation assay; settings: Homo sapiens
Procedure, shortened: as §3

MS751 cells = test: MTT cell proliferation assay; settings: Homo sapiens
Procedure, shortened: as §3

MRC-5 cells = test: MTT cell proliferation assay; settings: Homo sapiens, MRC5; MRC-5 cell line
Protocol: as §1, §2

M24 cells = test: MTT cell proliferation assay; settings: Homo sapiens
Protocol: as §1, §2

[2] = PC3 cells, 72-hour MTT, read-out: PC3 MTT IC50
[3] = Colo-205 cells, 72-hour MTT, read-out: Colo-205 MTT IC50
[4] = MDA-MB-468 cells, 72-hour MTT, read-out: MDA-MB-468 MTT IC50
[5] = DLD-1 cells, 72-hour MTT, read-out: DLD-1 MTT IC50
[6] = DU-145 cells, 72-hour MTT, read-out: DU-145 MTT IC50
[7] = MDA-MB-231 cells, 72-hour MTT, read-out: MDA-MB-231 MTT IC50
[8] = HCT-15 cells, 72-hour MTT, read-out: HCT-15 MTT IC50
[9] = U2OS cells, 72-hour MTT, read-out: U2OS MTT IC50
[10] = LoVo cells, 72-hour MTT, read-out: LoVo MTT IC50
[11] = NHDF cells, 72-hour MTT, read-out: NHDF MTT IC50
[12] = MM1S cells, 72-hour MTT, read-out: MM1S MTT IC50
[13] = NIH3T3, 72-hour MTT, read-out: 3T3 MTT IC50
[14] = NIH3T3, approximately 64-72 hours incubation, read-out: MTT Assay IC50 3T3
[15] = Z-138, 72 h, Z-138 cells, 72-hour MTT, read-out: Z-138 MTT IC50
[16] = Z-138, Z138 cells, approximately 64-72 hours incubation, read-out: MTT Assay IC50 Z-138
[17] = MS751, 72 h, MS751 cells, 72-hour MTT, read-out: MS751 MTT IC50
[18] = MS751, MS751 cells, approximately 64-72 hours incubation, read-out: MTT Assay IC50 MS-751
[19] = Colo-205 cell line, read-out: MTT Assay IC50, Colo-205
[20] = MDA-MB-468 cell line, read-out: MTT Assay IC50, MDA-MB-468
[21] = DLD-1 cell line, read-out: MTT Assay IC50, DLD-1
[22] = DU-145 cell line, read-out: MTT Assay IC50, DU-145
[23] = M24 cell line, read-out: MTT Assay IC50, M24
[24] = M24 cells, 72-hour MTT, read-out: M24 MTT IC50
[25] = MDA-MB-231 cell line, read-out: MTT Assay IC50, MDA-MB-231
[26] = HCT-15 cell line, read-out: MTT Assay IC50, HCT-15
[27] = U2OS cell line, read-out: MTT Assay IC50, U2OS
[28] = LoVo cell line, read-out: MTT Assay IC50, LoVo
[29] = NHDF cell line, read-out: MTT Assay IC50, NHDF
[30] = MM1S cell line, read-out: MTT Assay IC50, MM1S

Nc1ccc(/C=C/C(=O)NCc2cc3cc(-c4ccc(C(=O)N5CCC(F)(F)CC5)cn4)cc(C(F)(F)F)c3o2)cn1 [Compound 585, (E)-3-(6-aminopyridin-3-yl)-N-((5-(5-(4,4-difluoropiperidine-1-carbonyl)pyridin-2-yl)-7-(trifluoromethyl)benzofuran-2-yl)methyl)acrylamide]
pIC50 (PC3 cells; [2]): 6.85 | pIC50 (Colo-205 cells; [3]): 6.77 | pIC50 (MDA-MB-468 cells; [4]): 6.70 | pIC50 (DLD-1 cells; [5]): 6.03 | pIC50 (DU-145 cells; [6]): 5.31 | pIC50 (MDA-MB-231 cells; [7]): 5.95 | pIC50 (HCT-15 cells; [8]): 6.57 | IC50 at 72 h [1]: 0.13 µM | pIC50 (U2OS cells; [9]): 7.22 | pIC50 (LoVo cells; [10]): 6.59 | pIC50 (NHDF cells; [11]): 5.24 | pIC50 (MM1S cells; [12]): 7.05 | pIC50 (3T3 cells; [13]): < 5.00 | pIC50 (3T3 cells; [14]): < 5.00 | pIC50 (Z138 cells; [15]): 7.70 | pIC50 (Z138 cells; [16]): > 7.00 | pIC50 (MS751 cells; [17]): 7.00 | pIC50 (MS751 cells; [18]): > 7.00

Nc1ccc(/C=C/C(=O)NCc2cc3cc(-c4ccc(S(=O)(=O)N5CCOCC5)cc4)cc(Cl)c3o2)cn1 [Compound 504, (E)-3-(6-Aminopyridin-3-yl)-N-((7-chloro-5-(4-(morpholinosulfonyl)phenyl)benzofuran-2-yl)methyl)acrylamide]
pIC50 (PC3 cells; PC3 cell line, read-out: MTT Assay IC50, PC3): > 7.00 | pIC50 (PC3 cells; [2]): 7.30 | pIC50 (Colo-205 cells; [19]): > 7.00 | pIC50 (Colo-205 cells; [3]): 7.10 | pIC50 (MDA-MB-468 cells; [20]): 5.30 to 7.00 | pIC50 (MDA-MB-468 cells; [4]): 6.00 | pIC50 (DLD-1 cells; [21]): 5.30 to 7.00 | pIC50 (DLD-1 cells; [5]): 6.96 | pIC50 (MRC-5 cells): > 7.00 | pIC50 (DU-145 cells; [22]): > 7.00 | pIC50 (DU-145 cells; [6]): 7.10 | pIC50 (M24 cells; [23]): 5.30 to 7.00 | pIC50 (M24 cells; [24]): 7.30 | pIC50 (MDA-MB-231 cells; [25]): 5.30 to 7.00 | pIC50 (MDA-MB-231 cells; [7]): 6.66 | pIC50 (HCT-15 cells; [26]): > 7.00 | pIC50 (HCT-15 cells; [8]): 7.10 | IC50 at 72 h [1]: 0.02 µM | pIC50 (U2OS cells; [27]): > 7.00 | pIC50 (U2OS cells; [9]): 7.40 | pIC50 (LoVo cells; [28]): 5.30 to 7.00 | pIC50 (LoVo cells; [10]): 6.74 | pIC50 (NHDF cells; [29]): > 7.00 | pIC50 (NHDF cells; [11]): 7.22 | pIC50 (MM1S cells; [30]): 5.30 to 7.00 | pIC50 (MM1S cells; [12]): 6.54 | pIC50 (3T3 cells; [13]): 6.46 | pIC50 (3T3 cells; [14]): 5.30 to 7.00 | pIC50 (Z138 cells; [15]): 8.00 | pIC50 (Z138 cells; [16]): > 7.00 | pIC50 (MS751 cells; [17]): 7.52 | pIC50 (MS751 cells; [18]): > 7.00

Nc1ccc(/C=C/C(=O)NCc2cc3cc(-c4ccc(C(=O)N5CCOCC5)cc4)cc(C(F)(F)F)c3o2)cn1 [Compound 510, (E)-3-(6-aminopyridin-3-yl)-N-((5-(4-(morpholine-4-carbonyl)phenyl)-7-(trifluoromethyl)benzofuran-2-yl)methyl)acrylamide]
pIC50 (PC3 cells; [2]): 7.70 | pIC50 (Colo-205 cells; [19]): 5.30 to 7.00 | pIC50 (Colo-205 cells; [3]): 6.80 | pIC50 (MDA-MB-468 cells; [20]): > 7.00 | pIC50 (MDA-MB-468 cells; [4]): 7.52 | pIC50 (DLD-1 cells; [21]): 5.30 to 7.00 | pIC50 (DLD-1 cells; [5]): 6.02 | pIC50 (MRC-5 cells): > 7.00 | pIC50 (DU-145 cells; [22]): 5.30 to 7.00 | pIC50 (DU-145 cells; [6]): 5.83 | pIC50 (M24 cells; [23]): 5.30 to 7.00 | pIC50 (M24 cells; [24]): 6.54 | pIC50 (MDA-MB-231 cells; [25]): 5.30 to 7.00 | pIC50 (MDA-MB-231 cells; [7]): 5.85 | pIC50 (HCT-15 cells; [26]): 5.30 to 7.00 | pIC50 (HCT-15 cells; [8]): 5.90 | IC50 at 72 h [1]: 0.05 µM | pIC50 (U2OS cells; [27]): > 7.00 | pIC50 (U2OS cells; [9]): 8.10 | pIC50 (LoVo cells; [28]): 5.30 to 7.00 | pIC50 (LoVo cells; [10]): 6.64 | pIC50 (NHDF cells; [29]): > 7.00 | pIC50 (NHDF cells; [11]): 7.10 | pIC50 (MM1S cells; [30]): > 7.00 | pIC50 (MM1S cells; [12]): 7.05 | pIC50 (3T3 cells; [13]): < 5.00 | pIC50 (3T3 cells; [14]): < 5.00 | pIC50 (Z138 cells; [15]): 7.00 | pIC50 (Z138 cells; [16]): > 7.00 | pIC50 (MS751 cells; [17]): 7.00 | pIC50 (MS751 cells; [18]): 5.30 to 7.00
